Measured values taken from publication PMC5784245, “An Optimized Synthetic-Bioinformatic Natural Product Antibiotic Sterilizes Multidrug-Resistant Acinetobacter baumannii-Infected Wounds” (mSphere, 2018).
Values after ≈ are worked out from the molar mass of the structure shown. Like-named read-outs stand apart in the source and are kept apart here. Non-standard residues stand in square brackets, D forms with d. Residues, ends and D or L forms follow the SMILES beside them. *: point of attachment. Decanoyl = CCCCCCCCCC(=O)*; dOrn = NCCC[C@@H](N)C(=O)O; Orn = NCCC[C@H](N)C(=O)O

Assays:
Enterococcus faecalis = type: cell-based; details: 24 h
Method: (§1) Wang resins were purchased from Matrix Innovation. Reagents for peptide synthesis were purchased from P3 BioSystems, Chempep, and Chem-Impex International. The fluorescent dyes DiBAC4 and SYTOX were purchased from Thermo Fisher Scientific, and media were prepared from premixed powders: brain heart infusion for S. sobrinus and L. rhamnosus (Hardy Diagnostics), yeast extract-peptone-dextrose for C. albicans, lysogeny broth (LB) for all other bacteria (BD Biosciences), and McCoy’s 5A medium with 10% fetal bovine serum for HT-29 cells (American Type Culture Collection). All other chemicals and consumables were purchased from Sigma-Aldrich and VWR International. Paenimucillin 4F for in vivo studies was purchased from Ontores Biotechnologies as a high-performance liquid chromatography (HPLC)-purified peptide and used as is. Dye assays were performed in a Gen5 microtiter plate reader (Biotek Instruments). Liquid chromatography-mass spectrometry (LC-MS) analyses were performed by using an Acquity system (Waters Corporation).
(§2) Standard susceptibility assays were performed in LB medium in 96-well microtiter plates to determine the MIC by the broth microdilution method in accordance with protocols recommended by Clinical and Laboratory Standards Institute ([35]). Cytotoxicity was assessed using human HT-29 cells based on a similar broth microdilution method ([36]). All assays were performed in duplicate. For the cytotoxicity assay, 5,000 HT-29 cells per well were seeded into a microtiter plate and cultured for 24 h at 37°C in a 5% CO2 atmosphere. Peptides were supplemented at concentrations ranging from 128 to 0.5 μg/ml, and the cells were incubated for another 20 h. Growth media were removed, 3-(4,5-dimethylthiazol-2-yl)-2,5-diphenyltetrazolium bromide (MTT) was added to all wells (220 μl per well at 0.5 mg/ml), the mixture was incubated for 4 h, and then the media were discarded. Cell viability was determined by visual inspection.

Staphylococcus aureus = type: cell-based; details: 24 h
Method: as §1, §2

Bacillus subtilis = type: cell-based; details: 24 h
Method: as §1, §2

Lactobacillus rhamnosus = type: cell-based; details: 24 h
Method: as §1, §2

Streptococcus sobrinus = type: cell-based; details: 24 h
Method: as §1, §2

Acinetobacter baumannii = type: cell-based
Method: as §1, §2

Enterococcus faecium = type: cell-based
Method: as §1, §2

C. albicans = test: Toxicity assessment, MIC against C. albicans; type: cell-based, Candida albicans; details: Brady lab strain; yeast extract-peptone-dextrose; surrogate for cytotoxicity; duplicate
Method: as §1, with “Liquid chromatography-mass spectrometry (LC-MS) analyses were performed by using an Acquity system (Waters Corporation).” left out
Standard susceptibility assays were performed in LB medium in 96-well microtiter plates to determine the MIC by the broth microdilution method in accordance with protocols recommended by Clinical and Laboratory Standards Institute ([35]). Cytotoxicity was assessed using human HT-29 cells based on a similar broth microdilution method ([36]). […] Cell viability was determined by visual inspection.

Klebsiella pneumoniae = type: cell-based; details: 24 h
Method: as §1, §2

Pseudomonas aeruginosa = type: cell-based; details: 24 h
Method: as §1, §2

Enterobacter cloacae = type: cell-based; details: 24 h
Method: as §1, §2

[1] = test system: A. baumannii clinical isolate 1797; type: cell-based, Acinetobacter baumannii; details: clinical isolate 1797, 24 h
Method: as §1, §2

[2] = test system: A. baumannii clinical isolate 1791; type: cell-based, Acinetobacter baumannii; details: clinical isolate 1791, 24 h
Method: as §1, §2

[3] = test system: A. baumannii clinical isolate 1795; type: cell-based, Acinetobacter baumannii; details: clinical isolate 1795, 24 h
Method: as §1, §2

[4] = test system: A. baumannii clinical isolate 1788; type: cell-based, Acinetobacter baumannii; details: clinical isolate 1788, 24 h
Method: as §1, §2

[5] = test system: A. baumannii clinical isolate S5; type: cell-based, Acinetobacter baumannii; details: clinical isolate S5, 24 h
Method: as §1, §2

[6] = test system: A. baumannii clinical isolate S3; type: cell-based, Acinetobacter baumannii; details: clinical isolate S3, 24 h
Method: as §1, §2

[7] = test system: A. baumannii clinical isolate 1790; type: cell-based, Acinetobacter baumannii; details: clinical isolate 1790, 24 h
Method: as §1, §2

[8] = test system: MDR A. baumannii strain AB5075; test: Rat cutaneous wound model, efficacy; type: in vivo, Sprague-Dawley rats; details: rat wound infected with AB5075 (500 CFU); topical 10 mg/ml twice daily from 0.5 h postinoculation; four wounds, ±1 SD
Method: The rat cutaneous wound model was used as described previously ([21]). Protocols for animal studies were approved by the Rutgers University Institutional Animal Care and Use Committee. All animals were humanely euthanized at the study endpoint by following the AVMA Guidelines for the Euthanasia of Animals. Immunocompetent Sprague-Dawley female rats (~200 g) were anesthetized by intraperitoneal injection of 100 mg/kg ketamine plus 10 mg/kg xylazine. Using a 1.0-cm-diameter disposable biopsy punch, two symmetrical wounds were created on the dorsum of each rat. A circular gauze dressing 8 mm in diameter was saturated overnight with either vehicle or 4F at 10 mg/ml in sterile centrifuge tubes. To assess tolerability, the rats were weighed daily and observed for wound healing, behavior changes, and visible adverse drug effects for 5 days. To assess efficacy, A. baumannii strain AB5075 was grown overnight and the culture was diluted to provide the challenge inoculum (500 CFU) as 50 μl of bacterial suspension in 0.9% (wt/vol) NaCl. A circular gauze dressing 8 mm in diameter was saturated overnight with vehicle, tetracycline, or 4F at 10 mg/ml in sterile centrifuge tubes. These saturated dressings were topically applied to the wound site with sterile forceps twice daily, starting at 30 min postinoculation, for 6 days. Rats were observed twice daily for morbidity and possible signs of acute toxicity. Two and four independent cutaneous wounds were tested in tolerability and efficacy assessments, respectively.

[9] = test system: MDR A. baumannii strain AB5075; test: microbe, parasite or virus in culture; type: cell-based, Acinetobacter baumannii; details: Acinetobacter baumannii; MDR strain AB5075; read-out: in vitro MIC, A. baumannii AB5075
Method: as §2

| SMILES | MIC Enterococcus faecalis (Enterococcus faecalis) | MIC Staphylococcus aureus (Staphylococcus aureus) | MIC Bacillus subtilis (Bacillus subtilis) | MIC Lactobacillus rhamnosus (Lactobacillus rhamnosus) | MIC Streptococcus sobrinus (Streptococcus sobrinus) | MIC Acinetobacter baumannii (Acinetobacter baumannii; 24 h) | MIC Enterococcus faecium (Enterococcus faecium; 24 h) | MIC Klebsiella pneumoniae (Klebsiella pneumoniae) | MIC Pseudomonas aeruginosa (Pseudomonas aeruginosa) | MIC Enterobacter cloacae (Enterobacter cloacae) | further results |
| --- | --- | --- | --- | --- | --- | --- | --- | --- | --- | --- | --- |
| CCCCCCCCCC(=O)N[C@H](Cc1ccccc1)C(=O)N[C@H](CCCN)C(=O)N[C@@H](C(=O)N[C@H](CO)C(=O)N[C@H](Cc1ccccc1)C(=O)N[C@@H](CO)C(=O)N[C@@H](CO)C(=O)N[C@H](CCCN)C(=O)N[C@@H](Cc1ccccc1)C(=O)N[C@@H](CO)C(=O)N[C@H](C(=O)N[C@@H](C(=O)N[C@@H](CCCN)C(=O)O)[C@H](C)CC)C(C)C)[C@H](C)CC [1F, paenimucillin A] (Decanoyl-[dF][dOrn][dI][dS][dF]SS[dOrn]FSV[dI][Orn]-OH) | 32 µg/mL (≈ 19.6 µM) | 16 µg/mL (≈ 9.82 µM) | 4 µg/mL (≈ 2.45 µM) | 16 µg/mL (≈ 9.82 µM) | 2 µg/mL (≈ 1.23 µM) |  |  |  |  |  | MIC Acinetobacter baumannii (Acinetobacter baumannii; strain ATCC 17978, LB medium, broth microdilution, duplicate): 16 µg/mL (≈ 9.82 µM); MIC Enterococcus faecium (Enterococcus faecium; strain Com15, LB medium, broth microdilution, duplicate): 4 µg/mL (≈ 2.45 µM) |
| CCCCCCCCCC(=O)N[C@H](Cc1ccccc1)C(=O)N[C@H](CCCN)C(=O)N[C@@H](C(=O)N[C@H](CO)C(=O)N[C@H](Cc1c[nH]c2ccccc12)C(=O)N[C@@H](CO)C(=O)N[C@@H](CO)C(=O)N[C@H](CCCN)C(=O)N[C@@H](Cc1c[nH]c2ccccc12)C(=O)N[C@@H](CO)C(=O)N[C@H](C(=O)N[C@@H](C(=O)N[C@@H](CCCN)C(=O)O)[C@H](C)CC)C(C)C)[C@H](C)CC [1W, paenimucillin B] (Decanoyl-[dF][dOrn][dI][dS][dW]SS[dOrn]WSV[dI][Orn]-OH) | 128 µg/mL (≈ 74.9 µM) | 64 µg/mL (≈ 37.5 µM) | 16 µg/mL (≈ 9.37 µM) | 2 µg/mL (≈ 1.17 µM) | 1 µg/mL (≈ 0.585 µM) | 128 µg/mL (≈ 74.9 µM) | 4 µg/mL (≈ 2.34 µM) |  |  |  |  |
| CC[C@@H](C)[C@@H](NC(=O)[C@@H](NC(=O)[C@H](CO)NC(=O)[C@H](Cc1c[nH]c2ccccc12)NC(=O)[C@@H](CCCN)NC(=O)[C@H](CO)NC(=O)[C@H](CO)NC(=O)[C@@H](Cc1c[nH]c2ccccc12)NC(=O)[C@@H](CO)NC(=O)[C@H](NC(=O)[C@@H](CCCN)NC(=O)[C@@H](Cc1ccccc1)NC(C)=O)[C@H](C)CC)C(C)C)C(=O)N[C@@H](CCCN)C(=O)O [4W] (Ac-[dF][dOrn][dI][dS][dW]SS[dOrn]WSV[dI][Orn]-OH) | 4 µg/mL (≈ 2.51 µM) | 4 µg/mL (≈ 2.51 µM) | 1 µg/mL (≈ 0.627 µM) | 2 µg/mL (≈ 1.25 µM) | 2 µg/mL (≈ 1.25 µM) | 1 µg/mL (≈ 0.627 µM) | 32 µg/mL (≈ 20.1 µM) | 2 µg/mL (≈ 1.25 µM) | 16 µg/mL (≈ 10 µM) | 2 µg/mL (≈ 1.25 µM) | MIC, toxicity assessment, C. albicans (C. albicans): 128 µg/mL (≈ 80.2 µM); MIC for A. baumannii clinical isolate 1797 [1]: 2 µg/mL; MIC for A. baumannii clinical isolate 1791 [2]: 0.5 µg/mL; MIC for A. baumannii clinical isolate 1795 [3]: 2 µg/mL; MIC for A. baumannii clinical isolate 1788 [4]: 2 µg/mL; MIC for A. baumannii clinical isolate S5 [5]: 4 µg/mL; MIC for A. baumannii clinical isolate S3 [6]: 4 µg/mL; MIC for A. baumannii clinical isolate 1790 [7]: 0.5 µg/mL |
| CC[C@@H](C)[C@@H](NC(=O)[C@@H](NC(=O)[C@H](CO)NC(=O)[C@H](Cc1ccccc1)NC(=O)[C@@H](CCCN)NC(=O)[C@H](CO)NC(=O)[C@H](CO)NC(=O)[C@@H](Cc1ccccc1)NC(=O)[C@@H](CO)NC(=O)[C@H](NC(=O)[C@@H](CCCN)NC(=O)[C@H](N)Cc1ccccc1)[C@H](C)CC)C(C)C)C(=O)N[C@@H](CCCN)C(=O)O [5F] (H-[dF][dOrn][dI][dS][dF]SS[dOrn]FSV[dI][Orn]-OH) | 32 µg/mL (≈ 21.7 µM) | 64 µg/mL (≈ 43.4 µM) | 16 µg/mL (≈ 10.8 µM) | 128 µg/mL (≈ 86.7 µM) | 64 µg/mL (≈ 43.4 µM) | 32 µg/mL (≈ 21.7 µM) | 32 µg/mL (≈ 21.7 µM) | 4 µg/mL (≈ 2.71 µM) | 64 µg/mL (≈ 43.4 µM) | 8 µg/mL (≈ 5.42 µM) |  |
| CC[C@@H](C)[C@@H](NC(=O)[C@@H](NC(=O)[C@H](CO)NC(=O)[C@H](Cc1c[nH]c2ccccc12)NC(=O)[C@@H](CCCN)NC(=O)[C@H](CO)NC(=O)[C@H](CO)NC(=O)[C@@H](Cc1c[nH]c2ccccc12)NC(=O)[C@@H](CO)NC(=O)[C@H](NC(=O)[C@@H](CCCN)NC(=O)[C@H](N)Cc1ccccc1)[C@H](C)CC)C(C)C)C(=O)N[C@@H](CCCN)C(=O)O [5W] (H-[dF][dOrn][dI][dS][dW]SS[dOrn]WSV[dI][Orn]-OH) | 4 µg/mL (≈ 2.57 µM) | 8 µg/mL (≈ 5.15 µM) | 2 µg/mL (≈ 1.29 µM) | 4 µg/mL (≈ 2.57 µM) | 4 µg/mL (≈ 2.57 µM) | 4 µg/mL (≈ 2.57 µM) | 8 µg/mL (≈ 5.15 µM) | 4 µg/mL (≈ 2.57 µM) | 16 µg/mL (≈ 10.3 µM) | 4 µg/mL (≈ 2.57 µM) |  |
| CN(C)[C@@H]1C(O)=C(C(N)=O)C(=O)[C@@]2(O)C(O)=C3C(=O)c4c(O)cccc4[C@@](C)(O)[C@H]3C[C@@H]12 [tetracycline, reference compound] |  |  |  |  |  |  |  |  |  |  | bacterial burden of wound, day 3 [8]: 6.4 ± 0.31 log CFU; MIC [9]: 0.25 µg/mL (≈ 0.563 µM) |
